Experimental data taken from ChEMBL document CHEMBL1121451, “Neuroleptic activity in 5-aryltetrahydro-gamma-carbolines” (J Med Chem, 1980).

What was measured:
[1] = system: Rattus norvegicus; assay: Tested for neuroleptic activity by measuring antagonism of d-amphetamine sulfate at intraperitoneal dosage of 5 mg/kg, after 1 hour in rat; Range is 0.32-1.0; format: functional; conditions: ip
[2] = system: Rattus norvegicus; assay: Tested for neuroleptic activity by measuring antagonism of d-amphetamine sulfate at intraperitoneal dosage of 5 mg/kg, after 5 hours in rat; Range is 0.32-1.0; format: functional; conditions: ip
[3] = system: Rattus norvegicus; assay: Tested for neuroleptic activity by measuring antagonism of d-amphetamine sulfate at intraperitoneal dosage of 5 mg/kg, after 24 hours in rat; Range is 3.2-10; format: functional; conditions: ip
[4] = organism: Rattus norvegicus; assay: animal or person; conditions: ip, 1 h
Description: tested for neuroleptic activity by measuring antagonism of d-amphetamine sulfate at intraperitoneal dosage of 5 mg/kg, after 1 hour in rat

[5] = organism: Rattus norvegicus; assay: animal or person; conditions: ip, 24 h
Description: tested for neuroleptic activity by measuring antagonism of d-amphetamine sulfate at intraperitoneal dosage of 5 mg/kg, after 24 hours in rat

[6] = organism: Rattus norvegicus; assay: animal or person; conditions: ip, 5 h
Description: tested for neuroleptic activity by measuring antagonism of d-amphetamine sulfate at intraperitoneal dosage of 5 mg/kg, after 5 hours in rat

[7] = system: Canis familiaris; assay: The ability of compound to prevent the emesis induced by apomorphine (0.1 mg/kg, iv) in dogs at the specified dosage of 3.2 mg/kg (sesame oil); Range is 8-9; format: functional, Canis lupus familiaris
[8] = system: Canis familiaris; assay: The ability of compound to prevent the emesis induced by apomorphine (0.1 mg/kg, iv) in dogs at the specified dosage of 2.0 mg/kg (1 N saline); format: functional, Canis lupus familiaris
[9] = system: Rattus norvegicus; assay: Tested for neuroleptic activity by measuring antagonism of d-amphetamine sulfate at intraperitoneal dosage of 5 mg/kg, after 5 hours in rat; Range is 1.0-3.2; format: functional; conditions: ip
[10] = system: Rattus norvegicus; assay: Tested for neuroleptic activity by measuring antagonism of d-amphetamine sulfate at intraperitoneal dosage of 5 mg/kg, after 24 hours in rat; Range is 10-32; format: functional; conditions: ip
[11] = system: Rattus norvegicus; assay: Tested for neuroleptic activity by measuring antagonism of d-amphetamine sulfate at intraperitoneal dosage of 5 mg/kg, after 1 hour in rat; Range is 0.1-0.32; format: functional; conditions: ip
[12] = system: Rattus norvegicus; assay: Tested for neuroleptic activity by measuring antagonism of d-amphetamine sulfate at intraperitoneal dosage of 5 mg/kg, after 5 hours in rat; Range is 0.1-0.32; format: functional; conditions: ip
[13] = system: Rattus norvegicus; assay: Tested for neuroleptic activity by measuring antagonism of d-amphetamine sulfate at intraperitoneal dosage of 5 mg/kg, after 24 hours in rat; Range is 0.32-1.0; format: functional; conditions: ip
[14] = system: Rattus norvegicus; assay: Tested for neuroleptic activity by measuring antagonism of d-amphetamine sulfate at intraperitoneal dosage of 5 mg/kg, after 1 hour in rat; Range is 1.0-3.2; format: functional; conditions: ip
[15] = system: Rattus norvegicus; assay: Tested for neuroleptic activity by measuring antagonism of d-amphetamine sulfate at intraperitoneal dosage of 5 mg/kg, after 24 hours in rat; Range is 1.0-3.2; format: functional; conditions: ip
[16] = system: Canis familiaris; assay: The ability of compound to prevent the emesis induced by apomorphine (0.1 mg/kg, iv) in dogs at the specified dosage of 2.0 mg/kg (1 N saline); Range is 1-2; format: functional, Canis lupus familiaris
[17] = organism: Rattus norvegicus; assay: Inhibition of amphetamine induced stereotypy in rats; pretreated 1 hr before amphetamine.; format: functional
[18] = system: Rattus norvegicus; assay: Tested for neuroleptic activity by measuring antagonism of d-amphetamine sulfate at intraperitoneal dosage of 5 mg/kg, after 5 hours in rat; format: functional; conditions: ip
[19] = system: Rattus norvegicus; assay: Tested for neuroleptic activity by measuring antagonism of d-amphetamine sulfate at intraperitoneal dosage of 5 mg/kg, after 24 hours in rat; Range is 1.0-32; format: functional; conditions: ip

Cl.Fc1ccc(CCCCN2CCc3c(c4cc(F)ccc4n3-c3ccc(F)cc3)C2)cc1
ED50 [1]: 0.32 mg/kg
ED50 [2]: 0.32 mg/kg
ED50 [3]: 3.2 mg/kg

Cl.O=C(CCN1CCc2c(c3cc(F)ccc3n2-c2ccc(F)cc2)C1)c1ccc(F)cc1
ED50 [4]: > 32 mg/kg
ED50 [5]: > 32 mg/kg
ED50 [6]: > 32 mg/kg

CCCCC(=O)OC(CCCN1CCc2c(c3cc(F)ccc3n2-c2ccc(F)cc2)C1)c1ccc(F)cc1.Cl (centres undefined)
Protection [7]: 8 days

CCCCCCCCCC(=O)OC(CCCN1CCc2c(c3cc(F)ccc3n2-c2ccc(F)cc2)C1)c1ccc(F)cc1.Cl (centres undefined)
Protection [8]: 0 days

Cl.OC(CCCN1CCc2c(c3cc(F)ccc3n2-c2ccc(F)cc2)C1)c1cccc(F)c1 (centres undefined)
ED50 [1]: 0.32 mg/kg
ED50 [9]: 1 mg/kg
ED50 [10]: 10 mg/kg

OC(CCCN1CCc2c(c3cc(F)ccc3n2-c2ccc(F)cc2)C1)c1ccc(F)cc1 (centres undefined) [FLUTROLINE]
ED50 [11]: 0.1 mg/kg
ED50 [12]: 0.1 mg/kg
ED50 [13]: 0.32 mg/kg

Cl.O=C(CCCN1CCc2c(c3cc(F)ccc3n2-c2ccc(F)cc2)C1)c1ccc(F)cc1
ED50 [14]: 1 mg/kg
ED50 [9]: 1 mg/kg
ED50 [15]: 1 mg/kg

CCCCCCC(=O)OC(CCCN1CCc2c(c3cc(F)ccc3n2-c2ccc(F)cc2)C1)c1ccc(F)cc1.Cl (centres undefined)
Protection [16]: 1 days

OC(CCCN1CCc2c(c3cc(F)ccc3n2-c2ccc(Cl)cc2)C1)c1ccc(F)cc1 (centres undefined)
ED50 [17]: > 32 mg/kg
ED50 [18]: > 32 mg/kg
ED50 [19]: 1 mg/kg

Cl.OC(CCCN1CCc2c(c3cc(F)ccc3n2-c2ccccc2)C1)c1ccc(F)cc1 (centres undefined)
ED50 [14]: 1 mg/kg
ED50 [9]: 1 mg/kg
ED50 [3]: 3.2 mg/kg
